Several values for one entry are separate records, joined by “and”; a condition that tells them apart may be missing. Equal values may be shown once. Inconclusive results and toxic doses are left out.
Tested on: L1210 leukemia ip in BDF1 mice, survival T/C
Assay: NCI In Vivo Anticancer Drug Screen. Data for tumor model L1210 Leukemia (intraperitoneal) in B6D2F1 (BDF1) mice
Conditions: endpoint: mean survival time, higher = longer survival
Method in brief: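 Value reflects the ratio of survival in compound-treated mice to survival in vehicle-treated controls, with both groups carrying the same transplanted tumor.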

[1] = dose: 100.0 mg/kg/injection, schedule: Q01DX001 (ip), vehicle: Klucel (hydroxypropylcellulose) (HPC)
[2] = dose: 100.0 mg/kg/injection, schedule: Q01DX009 (ip), vehicle: Klucel (hydroxypropylcellulose) (HPC)
[3] = dose: 200.0 mg/kg/injection, schedule: Q01DX001 (ip), vehicle: Klucel (hydroxypropylcellulose) (HPC)
[4] = dose: 200.0 mg/kg/injection, schedule: Q01DX009 (ip), vehicle: Klucel (hydroxypropylcellulose) (HPC)
[5] = dose: 400.0 mg/kg/injection, schedule: Q01DX001 (ip), vehicle: Klucel (hydroxypropylcellulose) (HPC)
[6] = dose: 400.0 mg/kg/injection, schedule: Q01DX009 (ip), vehicle: Klucel (hydroxypropylcellulose) (HPC)
[7] = dose: 100.0 mg/kg/injection, schedule: Q01DX009 (ip), vehicle: saline with Tween-80
[8] = dose: 100.0 mg/kg/injection, schedule: Q04DX003 (ip), vehicle: Klucel (hydroxypropylcellulose) (HPC)
[9] = dose: 200.0 mg/kg/injection, schedule: Q04DX003 (ip), vehicle: Klucel (hydroxypropylcellulose) (HPC)
[10] = dose: 400.0 mg/kg/injection, schedule: Q04DX003 (ip), vehicle: Klucel (hydroxypropylcellulose) (HPC)

CC(C)=Cc1cc(C)ccc1OC(=O)c1ccc([N+](=O)[O-])cc1
T/C [1]: 102 % of control | T/C [2]: 97 % of control | T/C [3]: 91 % of control | T/C [4]: 101 % of control | T/C [5]: 103 % of control | T/C [6]: 104 % of control

OCC1CC(n2cnc3c(Cl)ncnc32)C(O)C1O (configuration not stated)
T/C (dose: 75.0 mg/kg/injection, schedule: Q01DX009 (ip), vehicle: saline with Tween-80): 107 % of control | T/C [7]: 101 % of control | T/C (dose: 150.0 mg/kg/injection, schedule: Q01DX009 (ip), vehicle: saline with Tween-80): 92 % of control

C[n+]1ccccc1
T/C (dose: 100.0 mg/kg/injection, schedule: Q01DX001 (ip), vehicle: saline): 94 % of control | T/C (dose: 200.0 mg/kg/injection, schedule: Q01DX001 (ip), vehicle: saline): 93 % of control | T/C (dose: 400.0 mg/kg/injection, schedule: Q01DX001 (ip), vehicle: saline): 104 % of control

NC(=O)c1nccnc1Cl
T/C [7]: 91 % of control | T/C (dose: 100.0 mg/kg/injection, schedule: Q04DX003 (ip), vehicle: saline with Tween-80): 100 % of control | T/C (dose: 200.0 mg/kg/injection, schedule: Q01DX009 (ip), vehicle: saline with Tween-80): 98 % of control | T/C (dose: 200.0 mg/kg/injection, schedule: Q04DX003 (ip), vehicle: saline with Tween-80): 97 % of control | T/C (dose: 400.0 mg/kg/injection, schedule: Q04DX003 (ip), vehicle: saline with Tween-80): 110 % of control

Cc1ccc(-n2c(=O)c(N=Nc3ccc(Br)cc3)c(O)n(-c3ccccc3C)c2=S)cc1
T/C [1]: 95 % of control | T/C [3]: 88 % of control | T/C [5]: 88 % of control

O=NN(CCCl)C(=O)Nc1ccc(I)cc1
T/C (dose: 8.0 mg/kg/injection, schedule: Q01DX009 (ip), vehicle: carboxymethylcellulose (CMC)): 121 % of control | T/C (dose: 8.4 mg/kg/injection, schedule: Q01DX009 (ip), vehicle: carboxymethylcellulose (CMC)): 112 % of control | T/C (dose: 12.0 mg/kg/injection, schedule: Q01DX009 (ip), vehicle: carboxymethylcellulose (CMC)): 112 % of control | T/C (dose: 17.0 mg/kg/injection, schedule: Q01DX001 (ip), vehicle: carboxymethylcellulose (CMC)): 117 % of control | T/C (dose: 17.7 mg/kg/injection, schedule: Q01DX001 (ip), vehicle: carboxymethylcellulose (CMC)): 119 % of control | T/C (dose: 26.6 mg/kg/injection, schedule: Q01DX001 (ip), vehicle: carboxymethylcellulose (CMC)): 122 % of control | T/C (dose: 29.0 mg/kg/injection, schedule: Q01DX009 (ip), vehicle: carboxymethylcellulose (CMC)): 150 % of control and 154 % of control | T/C (dose: 44.0 mg/kg/injection, schedule: Q01DX009 (ip), vehicle: carboxymethylcellulose (CMC)): 124 % of control | T/C (dose: 60.0 mg/kg/injection, schedule: Q01DX001 (ip), vehicle: carboxymethylcellulose (CMC)): 119 % of control | T/C (dose: 66.0 mg/kg/injection, schedule: Q01DX009 (ip), vehicle: carboxymethylcellulose (CMC)): 121 % of control and 90 % of control | T/C (dose: 89.0 mg/kg/injection, schedule: Q01DX001 (ip), vehicle: carboxymethylcellulose (CMC)): 153 % of control | T/C (dose: 100.0 mg/kg/injection, schedule: Q01DX009 (ip), vehicle: carboxymethylcellulose (CMC)): 98 % of control | T/C (dose: 200.0 mg/kg/injection, schedule: Q01DX001 (ip), vehicle: carboxymethylcellulose (CMC)): 186 % of control

COC(=O)C(=Cc1ccccc1)C(=O)OC
T/C (dose: 100.0 mg/kg/injection, schedule: Q04DX002 (ip), vehicle: Klucel (hydroxypropylcellulose) (HPC)): 95 % of control | T/C (dose: 200.0 mg/kg/injection, schedule: Q04DX002 (ip), vehicle: Klucel (hydroxypropylcellulose) (HPC)): 95 % of control | T/C (dose: 400.0 mg/kg/injection, schedule: Q04DX002 (ip), vehicle: Klucel (hydroxypropylcellulose) (HPC)): 92 % of control

CCc1ccccc1OS(=O)(=O)c1ccc([N+](=O)[O-])cc1
T/C [2]: 109 % of control | T/C [8]: 92 % of control | T/C [4]: 102 % of control | T/C [9]: 100 % of control | T/C [6]: 102 % of control | T/C [10]: 100 % of control

O=S(=O)(OCC(F)(F)F)c1ccccc1
T/C [2]: 103 % of control | T/C [8]: 97 % of control | T/C [4]: 101 % of control | T/C [9]: 102 % of control | T/C [10]: 103 % of control

Source: PubChem BioAssay AID248 (DTP/NCI, 2004)
